According to publication PMC11857530, “Antioxidant Peptides from Miiuy Croaker Swim Bladders: Ameliorating Effect and Mechanism in NAFLD Cell Model through Regulation of Hypolipidemic and Antioxidant Capacity” (Marine Drugs, 2025):
Blank lines part the entries; values can stand above or below the compound they belong to. Where no end group is shown, it is not given here.

Experiments:
OA-induced HepG2 cells = assay: Intracellular ROS level (DCFH-DA), OA-induced NAFLD cell model; assay type: cell-based, human; details: pretreated, compared to model group; concentration not given
Description: The OA-induced NAFLD cell model was established according to previous methods. HepG2 cells in the logarithmic growth phase were seeded into 96-well plates and cultivated in a humidified atmosphere of 5% CO2 at 37 °C for 24 h. OA was dissolved in 10% BSA and added to the DMEM with a final concentration of 80 μM. After this, the cells were cultured for 24 h, and the morphologies of the HepG2 cells were observed and photographed using a microscope. The HepG2 cells in the control wells were cultured for 24 h in DMEM without OA.
The ROS level was determined by the dichlorodihydrofluorescein diacetate (DCFH-DA) staining method. Briefly, HepG2 cells were seeded in 12-well plates and DCFH-DA was diluted to a final concentration of 10 μM at a ratio of 1:1000. Next, after the removal of the cell culture medium, the cells were washed three times with PBS. After this, the HepG2 cells were incubated with 10 μM DCFH-DA for 30 min at 37 °C. After washing with PBS three times again, the fluorescence of the HepG2 cells was monitored at 485 nm excitation (535 nm emission). Finally, images were acquired using a fluorescence microscope to observe the fluorescence intensity of DCFH-DA.

pancreatic lipase (PL) = target: T1, pancreatic lipase (PL) (Sus scrofa, UniProt P00591); assay: Pancreatic lipase (PL) inhibitory activity; assay type: biochemical; details: PNPB substrate, 15 min pre-incubation, 20 min, 37 °C; absorbance 405 nm
T1 construct: purchased Solarbio Life Sciences Co., Ltd. (Beijing, China)
T1 sequence (P00591 1-450): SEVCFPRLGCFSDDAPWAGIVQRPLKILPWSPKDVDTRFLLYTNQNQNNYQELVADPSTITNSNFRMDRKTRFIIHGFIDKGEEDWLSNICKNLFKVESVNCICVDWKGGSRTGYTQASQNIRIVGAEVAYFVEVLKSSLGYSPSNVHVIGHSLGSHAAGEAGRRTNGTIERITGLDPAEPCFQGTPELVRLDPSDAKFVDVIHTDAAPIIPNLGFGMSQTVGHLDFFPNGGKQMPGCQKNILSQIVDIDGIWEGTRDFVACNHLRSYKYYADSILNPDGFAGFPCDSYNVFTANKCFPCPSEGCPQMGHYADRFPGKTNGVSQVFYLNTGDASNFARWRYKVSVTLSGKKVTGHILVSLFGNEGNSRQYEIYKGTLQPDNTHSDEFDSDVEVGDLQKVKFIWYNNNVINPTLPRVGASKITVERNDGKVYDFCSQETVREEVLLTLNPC
Description: Sodium taurocholate, pancreatic lipase, cholesterol esterase, and Tris buffer solution were purchased from Solarbio Life Sciences Co., Ltd. (Beijing, China). […] P-nitrophenyl butyrate (PNPB) was purchased from Shanghai Macleans Biochemical Co., Ltd. (Shanghai, China).
The in vitro pancreatic lipase (PL) inhibitory activity was measured using the method of Cai et al. [78], with slight modifications. Pancreatic lipase was first dissolved in 100 mM Tris buffer (2 mg/mL) and the supernatant was obtained by centrifugation. Tris buffer was then prepared as 0.1% (w/v) PNPB solution. The 50 μL peptide sample was incubated with 50 μL Tris buffer solution and 50 μL pancreatic lipase solution at 37 °C for 15 min, and then 100 μL PNPB solution was added. After 20 min at 37 °C, the absorbance value was measured at 405 nm. In the blank group, pure water was used instead of a sample. In the blank control group, the samples were replaced with pure water and the pancreatic lipase solution was replaced with a buffer solution. […] The pancreatic lipase (PL) inhibitory rate was calculated using the following formula:PL inhibitory rate (%) = [1 − (A − A0)/(B − B0)] × 100%(2) where A, A0, B, and B0 are the absorbance values determined at 405 nm of the sample, the sample control, the blank, and the blank control after the reaction, respectively.

PPARα pathway = details: activating PPARα pathway; ref [26],[27]; cited from earlier work
Source text: (§1) Bioactive peptides (BPs) have been produced from diverse plant and animal proteins, such as mammals, poultry, beans, mollusks, fish, Antarctic krill, algae, etc. Beyond their important nutritional benefits, BPs show remarkable bioactivity and pharmacological functions, with numerous potential applications for human health. […] For example, GINY and DQW from α-lactalbum ...

[1] = system: AMP-activated protein kinase (AMPK) pathway; details: via AMPK pathway; ref [58],[61]; cited from earlier work
Source text: (§2) Modern unhealthy lifestyles, especially a HFD and lack of exercise, lead to the large accumulation of lipids in the human body, and the excess FFAs overloaded in the body are transferred from the bloodstream to the liver. If the rate of lipid oxidation is far slower than the synthesis rate, the large amounts of lipids accumulated in the liver will result in lipid metabolism disorder, steatosis, and ultimately the development of NAFLD [4, 58].

LXRα/SREBPs/HMGR pathway = details: via LXRα/SREBPs/HMGR pathway; ref [59],[60]; cited from earlier work
Source text: as §2

[2] = system: liver dysfunction caused by hyperglycemia; details: ref [29]; cited from earlier work
Source text: as §1

FFA-damaged HepG2 cells = details: regulating PERK/eIF2α and PERK/IκBα pathways; ref [28]; cited from earlier work
Source text: as §1

HepG2 cells = assay: MTT viability of HepG2 cells; assay type: cell-based, human; details: 100 μM, 24 h
Description: HepG2 human hepatoma cell line was purchased from Shanghai Cell Bank, Chinese Academy of Sciences. HepG2 cells were cultured in DMEM containing […] streptomycin, 50 U/mL penicillin, 2 mM glutamine, and 10% FCS in a humidified atmosphere of 5% CO2 at 37 °C.
The viability of the HepG2 cells was evaluated using the MTT assay via a previous method. In brief, S7 and S10 were dissolved in growth medium to form a peptide solution with a concentration of 200 μM. Then, the peptide solution was added to the growth medium of HepG2 cells with final concentrations of 10, 50, and 100 μM, and the cells were incubated for 24 h with peptide administration. The control group was treated with the growth medium without peptides. SV (1.0 mM) was used as a positive control.

Compound: CC(=O)N[C@@H](CS)C(=O)O [NAC]
ROS fluorescence intensity (OA-induced HepG2 cells): showed varying degrees of decrease compared to the model group

IC50 (pancreatic lipase (PL)): 1670 µM
Compound: FSGLR [S7]

IC50 (pancreatic lipase (PL)): 1290 µM
Compound: GIEWA [S10]

Compound: GINY [peptide from α-lactalbumin]
Alleviation of NAFLD (PPARα pathway): decrease lipid deposition and oxidative stress

Compound: IRWWW [antioxidant peptide from Miichthys miiuy muscle]
TG and TC content [1]: decrease the content of TG and TC

Compound: VFVRN [derived from chickpea protein hydrolysate]
Hypolipidemic activity (LXRα/SREBPs/HMGR pathway): strong hypolipidemic activity

Compound: VHVV [A tetrapeptide (VHVV) from soy]
Effect on liver dysfunction [2]: strong preventive effect on liver dysfunction caused by hyperglycemia

Compound: VIAPW [antioxidant peptide from Miichthys miiuy muscle]
TG and TC content [1]: decrease the content of TG and TC

Compound: VLATSGPG [VLATSGPG (VLA), peptide from salmon skins]
Lipid content and inflammation (FFA-damaged HepG2 cells): decrease the lipid content and inflammation

Compound: VPDDD [S9, antioxidant peptide separated from swim bladder hydrolysate of the miiuy croaker]
Viability of HepG2 cells vs control (HepG2 cells): remarkably lower than that of the control (p < 0.05)
